Source: the PolyMetriX glass transition set
± gives the standard deviation of the reports.

| SMILES | glass transition temperature |
| --- | --- |
| *Oc1c(C)cc(C(C)(C)c2cc(C)c(OC(=O)c3ccc(C(*)=O)cc3)c(C)c2)cc1C (repeat unit) | 239.00 °C |
| *OC(COC(=O)C1=C(C(=O)OCC(COC(=O)C2=C(c3ccccc3)C3C=CC2C3)OC(=O)c2ccc(C(*)=O)cc2)C2C=CC1C2)COC(=O)C1=C(c2ccccc2)C2C=CC1C2 (repeat unit) | 74.00 °C |
| *Oc1ccc(Oc2ccc(P(C)(=O)c3ccc(*)cc3)cc2)cc1 (repeat unit) | 213.00 °C |
| *CC(CCCCCCCCCC)C(CCCCCCCCCC)COC(=O)c1ccc(C(=O)O*)cc1 (repeat unit) | -38.00 °C |
| *c1ccc2c(c1)C(=O)N(c1ccc(N(c3ccc(/C=C/c4ccc([N+](=O)[O-])cc4)cc3)c3ccc(N4C(=O)c5ccc(C(*)(C(F)(F)F)C(F)(F)F)cc5C4=O)cc3)cc1)C2=O (repeat unit) | 290.00 °C |
| *c1c(C)cc(-c2cc(C)c(-n3c(=O)c4cc5c(=O)n(*)c(=O)c5cc4c3=O)c(C)c2)cc1C (repeat unit) | 340.00 °C |
| *Oc1ccc(OC(=O)c2cccc(Sc3ccc(OC(=O)c4ccc(C(=O)Oc5ccc(Sc6cccc(C(*)=O)c6)cc5)cc4)cc3)c2)cc1C (repeat unit) | 106.50 °C |
| *c1ccc(-c2ccc(-n3c(=O)c4cc5c(=O)n(*)c(=O)c5c(C(F)(F)F)c4c3=O)cc2C(F)(F)F)c(C(F)(F)F)c1 (repeat unit) | 373.00 °C |
| *CCCCOCCCCOCCCCOC(=O)c1ccc(/N=C/c2cc(OCCCCCC)c(/C=C/c3cc(OCCCCCC)c(/C=C/c4cc(OCCCCCC)c(/C=N/c5ccc(C(=O)O*)cc5)cc4OCCCCCC)cc3OCCCCCC)cc2OCCCCCC)cc1 (repeat unit) | 14.30 °C |
| *O[Si](*)(C)c1c(F)c(F)c(F)c(F)c1F (repeat unit) | -25.00 °C |
| *CC(OC(=O)C(Cc1ccccc1)NC(=O)OC(C)(C)C)C(COC(=O)O*)OC(=O)C(Cc1ccccc1)NC(=O)OC(C)(C)C (repeat unit) | 82.40 °C |
| *Oc1ccc(C(C)(C)c2ccc(Oc3ccc(C(=O)c4ccc5cc(C(=O)c6ccc(*)cc6)ccc5c4)cc3)cc2)cc1 (repeat unit) | 185.00 °C |
| *C(=O)Nc1cc(NC(=O)c2ccc3[nH]c(-c4cccc(-c5nc6cc(*)ccc6[nH]5)c4)nc3c2)cc(-c2nc3ccccc3[nH]2)c1 (repeat unit) | 315.00 °C |
| *Oc1ccc(-c2ccc(Oc3ccc(C(=O)c4c(C(=O)c5ccc(*)cc5)c(-c5ccc(F)cc5)c(-c5ccc(F)cc5)c(-c5ccc(F)cc5)c4-c4ccc(F)cc4)cc3)cc2)cc1 (repeat unit) | 275.00 °C |
| *Oc1ccc(NC(=O)c2ccc3cc(C(=O)Nc4ccc(Oc5ccc(C6(c7ccc(*)cc7)C7CC8CC(C7)CC6C8)cc5)cc4)ccc3c2)cc1 (repeat unit) | 266.00 °C |
| *CCCCCCCCCCCCC(=O)N* (repeat unit) | 41.00 °C |
| *Oc1c(C)cc(C(C)(C)c2cc(C)c(OC(*)=O)c(C)c2)cc1C (repeat unit) | 193.00 °C |
| *Nc1ccc(C(C)(C)c2ccc(NC(=O)c3cc(C(*)=O)cc(N4C(=O)C5CC=CCC5C4=O)c3)cc2)cc1 (repeat unit) | 308.00 °C |
| *CCCCCCCCCCOc1c(OC)cc(/C=C/c2ccc(/C=C/c3cc(OC)c(O*)c(OC)c3)cc2)cc1OC (repeat unit) | 68.50 °C |
| *C(=O)Nc1cccc(C(=O)Nc2cccc(NC(=O)c3ccc4[nH]c(-c5cccc(-c6nc7cc(*)ccc7[nH]6)c5)nc4c3)c2)c1 (repeat unit) | 331.00 °C |
| *O[Si](*)(C)CCCCCCCCCCCOc1ccc(/C=C/c2ccc(C#N)cc2)cc1 (repeat unit) | -55.00 °C |
| *CCNC(=O)c1ccc(C(=O)N*)c(Sc2ccccc2)c1 (repeat unit) | 172.00 °C |
| *Oc1ccc(Sc2ccc(OC(*)=O)cc2)cc1 (repeat unit) [Poly(4,4'-thiodiphenylene carbonate)] | 113.4 ± 2.1 °C |
